This passage reports CC50 and EC50 results from patent US20190375708A1 (VenatoRx Pharmaceuticals, Inc., priority 2018, published 2019).

The CC50 is the concentration giving 50% cytotoxicity. A higher CC50 goes with better tolerance by the cells. A word on the EC50: it is the concentration giving half of the maximal effect.

Data set [1] can be described thus: In vitro cytotoxicity assay (MTT cell viability) in HepG2 cells. It counts as cell-based, human. The note with it: human. Put shortly: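 Parental HepG2 cells in EMEM + 10% FBS were exposed to compounds (8 half-log dilutions, 30 μM to 1.0 nM) for 7 days at 37 °C, 5% CO2. MTT was then added for 3-4 h, formazan dissolved in DMSO and absorbance read at 492 nm; CC50 came from 4-parameter fits against vehicle controls.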

For data set [2], the system named is HBV replication in HepAD38 cells. Description: Anti-HBV replication assay in HepAD38 cells (QPCR of extracellular HBV DNA). Type of data set: cell-based, HBV (genotype D, serotype ayw). To be noted: Hepatitis B virus, 168 h, 7 days incubation, extracellular HBV DNA by QPCR, read-out: Anti-HBV EC50. The essentials:
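HepAD38 cells (HepG2 carrying tet-repressible HBV genotype D genome) induced by tetracycline withdrawal, treated 7 days at 37 °C with compound ([…], 1-log10 dilutions). Extracellular HBV DNA quantified by QPCR against a standard curve, normalised to DMSO; EC50 from 4-parameter fit.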

On to `Cc1cc(NC(=O)c2c(C)c(C(=O)C(=O)NC3(C(=O)N[C@]4(C)C[C@H](O)C4)CCOCC3)n(C)c2C)ccc1F` [Example 683, N-(4-fluoro-3-methylphenyl)-5-(2-((4-(((1s,3s)-3-hydroxy-1-methylcyclobutyl)carbamoyl)tetrahydro-2H-pyran-4-yl)amino)-2-oxoacetyl)-1,2,4-trimethyl-1H-pyrrole-3-carboxamide], for which the CC50 at 7 days in data set [1] was over 30000 nM. Moreover, the EC50 in data set [2] is under 50 nM.
Molecule `Cc1cc(NC(=O)c2c(C)c(C(=O)C(=O)N[C@@H](C(N)=O)C(C)(C)C)n(C)c2C)ccc1F` [Example 40, (R)-5-(2-((1-amino-3,3-dimethyl-1-oxobutan-2-yl)amino)-2-oxoacetyl)-N-(4-fluoro-3-methylphenyl)-1,2,4-trimethyl-1H-pyrrole-3-carboxamide] had a CC50 at 7 days in data set [1] of 500 to 4990 nM. The EC50 in data set [2] fell in the range of 500 to 1000 nM.
Taken in the same sequence, the figures for `Cc1cc(NC(=O)c2c(C)c(C(=O)C(=O)NCC(C)(C)N3CCOCC3)n(C)c2C)ccc1F` [Example 352, N-(4-fluoro-3-methylphenyl)-1,2,4-trimethyl-5-(2-((2-methyl-2-morpholinopropyl)amino)-2-oxoacetyl)-1H-pyrrole-3-carboxamide] were over 30000 nM and 50 to 499 nM.
The matching figures for `Cc1cc(NC(=O)c2c(C)c(C(=O)C(=O)NCCc3nnc[nH]3)n(C)c2C)ccc1F` [Example 348, 5-(2-((2-(4H-1,2,4-triazol-3-yl)ethyl)amino)-2-oxoacetyl)-N-(4-fluoro-3-methylphenyl)-1,2,4-trimethyl-1H-pyrrole-3-carboxamide]: over 30000 nM and under 50 nM.
The matching figures for `Cc1c(C(=O)Nc2cc(F)c(F)c(F)c2)c(C)n(C)c1C(=O)C(=O)Nc1ccccn1` [Example 318, 1,2,4-trimethyl-5-(2-oxo-2-(pyridin-2-ylamino)acetyl)-N-(3,4,5-trifluorophenyl)-1H-pyrrole-3-carboxamide]: over 30000 nM and 50 to 499 nM.
Molecule `Cc1c(C(=O)Nc2ccc(F)c(Cl)c2)c2n(c1C(=O)C(=O)NC1(CO)CCC1)CCCC2` [Example 452, N-(3-chloro-4-fluorophenyl)-3-(2-((1-(hydroxymethyl)cyclobutyl)amino)-2-oxoacetyl)-2-methyl-5,6,7,8-tetrahydroindolizine-1-carboxamide] came in with a CC50 at 7 days in data set [1] of 5000 to 30000 nM. Moreover, the EC50 in data set [2] is under 50 nM.
As for `Cc1noc(C2(NC(=O)C(=O)c3c(C)c(C(=O)Nc4cnc(F)c(C)c4)c(C)n3C)CC2)n1` [Example 160, N-(6-fluoro-5-methylpyridin-3-yl)-1,2,4-trimethyl-5-(2-((1-(3-methyl-1,2,4-oxadiazol-5-yl)cyclopropyl)amino)-2-oxoacetyl)-1H-pyrrole-3-carboxamide], in data set [1], the CC50 at 7 days was over 30000 nM. Moreover, the EC50 in data set [2] lay within 50 to 499 nM.
In the case of `Cc1cc(NC(=O)c2cc(C(=O)C(=O)NC3(CO)CCC3)n3c2CCCC3)ccc1F` [Example 410, N-(4-fluoro-3-methylphenyl)-3-(2-((1-(hydroxymethyl)cyclobutyl)amino)-2-oxoacetyl)-5,6,7,8-tetrahydroindolizine-1-carboxamide], the CC50 at 7 days in data set [1] was over 30000 nM. For the same molecule, in data set [2], the EC50 was 50 to 499 nM.
`Cc1cc(NC(=O)c2c(C)c(C(=O)C(=O)NC3(CO)CCCC3)n(C)c2C)ccc1F` [Example 359, N-(4-fluoro-3-methylphenyl)-5-(2-((1-(hydroxymethyl)cyclopentyl)amino)-2-oxoacetyl)-1,2,4-trimethyl-1H-pyrrole-3-carboxamide] gave a CC50 at 7 days in data set [1] of over 30000 nM. The EC50 in data set [2] was under 50 nM.
Taken in the same sequence, the figures for `CC(=O)N1CCC[C@H](NC(=O)C(=O)c2c(C)c(C(=O)Nc3ccc(F)c(C)c3)c(C)n2C)C1` [Example 641, (S)-5-(2-((1-acetylpiperidin-3-yl)amino)-2-oxoacetyl)-N-(4-fluoro-3-methylphenyl)-1,2,4-trimethyl-1H-pyrrole-3-carboxamide] were over 30000 nM and under 50 nM.
Turning to `Cc1nnc(C2(NC(=O)C(=O)c3c(C)c(C(=O)Nc4ccc(F)c(C)c4)c(C)n3CCF)CC2)o1` [Example 201, N-(4-fluoro-3-methylphenyl)-1-(2-fluoroethyl)-2,4-dimethyl-5-(2-((1-(5-methyl-1,3,4-oxadiazol-2-yl)cyclopropyl)amino)-2-oxoacetyl)-1H-pyrrole-3-carboxamide], the CC50 at 7 days in data set [1] is over 30000 nM. For the same molecule, the EC50 in data set [2] lay in the range of 50 to 499 nM.
The matching figures for `Cc1cc(NC(=O)c2c(C)c(C(=O)C(=O)N[C@@H]3CCCC[C@H]3O)n(C)c2C)ccc1F` [Example 136, N-(4-fluoro-3-methylphenyl)-5-(2-(((1R,2R)-2-hydroxycyclohexyl)amino)-2-oxoacetyl)-1,2,4-trimethyl-1H-pyrrole-3-carboxamide]: over 30000 nM and under 50 nM.
Molecule `CC[C@H](C)NC(=O)C1(NC(=O)C(=O)c2c(C)c(C(=O)Nc3ccc(F)c(C)c3)c(C)n2C)CCOCC1` [Example 682, (S)-5-(2-((4-(sec-butylcarbamoyl)tetrahydro-2H-pyran-4-yl)amino)-2-oxoacetyl)-N-(4-fluoro-3-methylphenyl)-1,2,4-trimethyl-1H-pyrrole-3-carboxamide] showed a CC50 at 7 days in data set [1] of over 30000 nM. Further, the EC50 in data set [2] is under 50 nM.
The matching figures for `CO[C@H]1CC[C@@H](NC(=O)C(=O)c2c(C)c(C(=O)Nc3ccnc(Cl)c3)c(C)n2C)CC1` [Example 345, N-(2-chloropyridin-4-yl)-5-(2-(((1s,4s)-4-methoxycyclohexyl)amino)-2-oxoacetyl)-1,2,4-trimethyl-1H-pyrrole-3-carboxamide]: over 30000 nM and under 50 nM.
As to `CC(C)(CO)NC(=O)C(=O)c1cc(C(=O)Nc2ccc(F)c(Cl)c2)c2n1CCCC2` [Example 427, N-(3-chloro-4-fluorophenyl)-3-(2-((1-hydroxy-2-methylpropan-2-yl)amino)-2-oxoacetyl)-5,6,7,8-tetrahydroindolizine-1-carboxamide], the CC50 at 7 days in data set [1] was over 30000 nM. Further, in data set [2], the concentration giving a half-maximal response (EC50) was 50 to 499 nM.
Taken in the same sequence, the figures for `Cc1cc(NC(=O)c2c(C)c(C(=O)C(=O)N3CCC(O)CC3)n(C)c2C)ccc1F` [Example 47, N-(4-fluoro-3-methylphenyl)-5-(2-(4-hydroxypiperidin-1-yl)-2-oxoacetyl)-1,2,4-trimethyl-1H-pyrrole-3-carboxamide] were 500 to 4990 nM and 50 to 499 nM.
`Cc1c(C(=O)Nc2ccc(F)c(F)c2)c(C)n(C)c1C(=O)C(=O)Nc1ccc(F)nc1` [Example 297, N-(3,4-difluorophenyl)-5-(2-((6-fluoropyridin-3-yl)amino)-2-oxoacetyl)-1,2,4-trimethyl-1H-pyrrole-3-carboxamide]: the CC50 at 7 days in data set [1] lay in the range of 5000 to 30000 nM. For the same molecule, the EC50 in data set [2] is under 50 nM.
The matching figures for `Cc1c(C(=O)Nc2cccc(C(F)F)c2)c(C)n(C)c1C(=O)C(=O)N[C@]1(C)CC[C@H](O)CC1` [Example 701, N-(3-(difluoromethyl)phenyl)-5-(2-(((1s,4s)-4-hydroxy-1-methylcyclohexyl)amino)-2-oxoacetyl)-1,2,4-trimethyl-1H-pyrrole-3-carboxamide]: over 30000 nM and under 50 nM.
Taken in the same sequence, the figures for `O=C(NC1(CO)CC1)C(=O)c1c(Cl)c(C(=O)Nc2ccc(F)c(Cl)c2)c2n1CCC2` [Example 566, 6-chloro-N-(3-chloro-4-fluorophenyl)-5-(2-((1-(hydroxymethyl)cyclopropyl)amino)-2-oxoacetyl)-2,3-dihydro-1H-pyrrolizine-7-carboxamide] were 5000 to 30000 nM and under 50 nM.
Molecule `O=C(N[C@H]1CCC[C@H]1O)C(=O)c1c(Cl)c(C(=O)Nc2ccc(F)c(F)c2)c2n1CCCC2` [Example 519, 2-chloro-N-(3,4-difluorophenyl)-3-(2-(((1S,2R)-2-hydroxycyclopentyl)amino)-2-oxoacetyl)-5,6,7,8-tetrahydroindoliznie-1-carboxamide] had a CC50 at 7 days in data set [1] of 5000 to 30000 nM. For the same molecule, in data set [2], the EC50 lay in the range of 50 to 499 nM.
`O=C(NC1(CO)CC1)C(=O)c1c(Cl)c(C(=O)Nc2ccc(F)c(F)c2)c2n1CCCC2` [Example 502, 2-chloro-N-(3,4-difluorophenyl)-3-(2-((1-(hydroxymethyl)cyclopropyl)amino)-2-oxoacetyl)-5,6,7,8-tetrahydroindolizine-1-carboxamide]: the CC50 at 7 days in data set [1] was over 30000 nM. The EC50 in data set [2] lay in the range of 50 to 499 nM.
The matching figures for `Cc1cc(NC(=O)c2c(C)c(C(=O)C(=O)NC(C)(C)C(N)=O)n(C)c2C)ccc1F` [Example 36, 5-(2-((1-amino-2-methyl-1-oxopropan-2-yl)amino)-2-oxoacetyl)-N-(4-fluoro-3-methylphenyl)-1,2,4-trimethyl-1H-pyrrole-3-carboxamide]: over 30000 nM and under 50 nM.
Taken in the same sequence, the figures for `COc1c(C(=O)Nc2ccc(F)c(F)c2)c(C)n(C)c1C(=O)C(=O)NCC(C)(C)O` [Example 382, N-(3,4-difluorophenyl)-5-(2-((2-hydroxy-2-methylpropyl)amino)-2-oxoacetyl)-4-methoxy-1,2-dimethyl-1H-pyrrole-3-carboxamide] were over 30000 nM and over 1000 nM.
In turn, `CC(=O)N[C@H]1C[C@H](NC(=O)C(=O)c2c(C)c(C(=O)Nc3ccc(F)c(C)c3)c(C)n2C)C1` [Example 670, 5-(2-(((1r,3r)-3-acetamidocyclobutyl)amino)-2-oxoacetyl)-N-(4-fluoro-3-methylphenyl)-1,2,4-trimethyl-1H-pyrrole-3-carboxamide] yielded a CC50 at 7 days in data set [1] of over 30000 nM. In data set [2], the EC50 was under 50 nM.
